From patent US8188268B2, “Porous crystalline saccharide, its preparation and uses” (Kabushiki Kaisha Hayashibara Seibutsu Kagaku Kenkyujo, priority 2005, dated 2012)
Values joined by “and” are separate entries in the source; they are usually repeats but may differ in a detail not shown here. Identical values can stand only once. Like-named read-outs stand apart in the source and are kept apart here.

What was measured:
[1] = Specific surface area by nitrogen adsorption isotherms (BET); assay type: physicochemical; settings: for Specific surface area: nitrogen adsorption isotherms, BET
Method: Specific surface area of the porous anhydrous crystalline trehalose was measured by the nitrogen adsorption isotherms using “MODEL ASAP-2400”, a specific surface area/pore size distribution analyzer commercialized by Micromeritics, Georgia, USA. […] The result was analyzed by the BET (Brunnauer, Emmet, and Teller) method. The commercial anhydrous crystalline trehalose, a reagent grade, commercialized by Hayashibara Biochemical Laboratories Inc., Okayama, Japan, was used as a control. […] Further, those pore size distribution charts are in FIG. 19. […] The results of the analysis on the specific surface area and the pore size distribution are summarized in Table 7, and the pore size distribution chart was in FIG. 24. As a control, “MALTOSE OM”, a hydrous crystalline maltose product with maltose purity of 98% or higher, produced by Hayashibara Co., Ltd., Okayama, Japan, was used.

[2] = Preservation test of flax seed oil powder, volatile aldehydes by GC; assay type: physicochemical; settings: flax seed oil powder with this base
Method: As disclosed in Japanese Patent Kokai No. 123,195/2001 applied for by the same applicant of the present invention, it has been known that trehalose inhibits the decomposition of fatty acids and the formation of volatile aldehydes. Therefore, a preservation test of the flax seed oil powders were carried out according to the following method by using the flax seed oil powders prepared in Example 9 by using the porous anhydrous crystalline trehalose of the present invention or the control anhydrous crystalline trehalose as powderizing bases, and the amounts of the formed volatile aldehydes were compared.
One gram each of the flax seed oil powder was put into two 20 ml-vial, sealed with Butyl-rubber stopper, and then preserved in an incubator at 40° C. for three weeks. The vial was collected at the point of before the preservation or after preserving for 21 days and heated at 80° C. for 5 min. Then, 2 ml of vapor phase gas in the vial was directly subjected to gas chromatography (GC) analysis to determine the amount of volatile aldehydes. GC analysis was carried out according to the following conditions.
• Gas chromatograph: GC-17B, produced by Shimadzu Corporation, Kyoto, Japan; • Column: TC-FFAP capillary column (ID 0.52 mm×30 m), produced by GL Sciences Inc., Tokyo, Japan; • Column temperature: 40° C. to 100° C.

[3] = Pore size distribution by the mercury filling method; assay type: physicochemical; settings: for Median pore diameter: control maltose values are from space between particles, not pores
[4] = Oil-keeping ability with salad oil; assay type: physicochemical; design: key to Oil-keeping ability: (5 g salad oil / g saccharide added at endpoint) x 100; settings: for Oil-keeping ability: (5 g salad oil / amount of added saccharide) x 100
Method: The oil-keeping ability of each crystalline saccharide was measured using the porous anhydrous crystalline trehalose prepared by treating at 70° C. for 60 min in Example 1, the control hydrous crystalline trehalose, and the control anhydrous crystalline trehalose as crystalline trehalose samples; and the porous anhydrous crystalline maltose prepared by the method in Example 3, the control hydrous crystalline β-maltose, and the control anhydrous crystalline α-maltose, and the control anhydrous crystalline β-maltose as crystalline maltose samples, and the results were compared.
The measurement of the oil-keeping ability of the crystalline saccharide was carried out according to the method disclosed in Japanese Patent Kokai No. 31,650/84. Five grams of “NISSHIN SALAD OIL”, a salad oil commercialized by Nisshin OiliO Group, Ltd., Tokyo, Japan, was placed in a 50-ml plastic container, and then gradually admixed with each powdery crystalline saccharide with stirring. […] When the amount of the mixed saccharide is further increased, the agglomerate increase in solidity and then loosen. The point that the agglomerate is loosened is estimated to be the endpoint and the oil-keeping ability was calculated using the following formula. Oil-Keeping Ability =(The amount of salad oil(5 g)/the amount of added PCS*)×100 *: Powdery crystalline saccharide tm Formula 1

[5] = Dissolution test against cold water at 10° C.; assay type: physicochemical; settings: for Time required for dissolution, No. 1 / Time required for dissolution, No. 2 / Time required for dissolution, No. 3 / Time required for dissolution, No. 4 / Time required for dissolution, No. 5 / Time required for dissolution, Average: 20 ml water 10° C., about 300 rpm, 0.5 g trehalose or 0.2 g maltose; for Time required for dissolution, Average: average of 5
Method: A dissolution test against cold water at 10° C. was carried out using the porous anhydrous crystalline trehalose prepared by treating at 70° C. for 60 min in Example 1, the porous anhydrous crystalline maltose prepared by the method in Example 3, and the porous hydrous crystalline maltose prepared by the method in Example 5, as samples. The results were compared with those of the controls, anhydrous crystalline trehalose, hydrous crystalline trehalose, and hydrous crystalline maltose.
Twenty milliliters of 10° C.-cold water was placed in a test tube with an internal diameter of 18 mm, and then stirred using a stirring bar. A crystalline saccharide sample was put into the test tube, and the time required for the complete dissolution (for the disappearance of precipitate particles) was measured. The amount of samples was set to be 0.5 g in the case of trehalose and to be 0.2 g in the case of maltose, and the stirring rate was set to be about 300 rpm in any case. The measurement of time for dissolution under the above conditions was carried out 5-times at each sample.

[6] = Flax seed oil powder: keeping of powdery form; assay type: physicochemical; settings: 1 part flax seed oil + 10 parts saccharide as base
Method: One part by weight of flax seed oil was admixed with 10 parts by weight of the porous anhydrous crystalline trehalose, prepared by treating at 70° C. for 60 min in Example 1, and then the mixture was kneaded to make into a powdery product. In the same manner, powdery products were prepared by using “TREHA®”, hydrous crystalline trehalose commercialized by Hayashibara Shoji Inc., Okayama, Japan, and anhydrous crystalline trehalose, prepared from hydrous crystalline trehalose by drying in vacuo at a high temperature according to the conventional method, as controls. […] The flaxseed oil powder can be preferably used as a supplement.

[7] = Crystal moisture content (Karl Fischer) on moisture absorption and drying; assay type: physicochemical
Method: Hydrous crystalline saccharides were prepared from the respective porous anhydrous crystalline saccharide using the porous anhydrous crystalline trehalose, obtained by treating at 70° C. for 60 min in Example 1, and the porous anhydrous crystalline maltose, obtained by treating at 70° C. for 480 min in Example 3, as materials. About 50 g of the porous anhydrous crystalline saccharide and about 150 ml of deionized water were placed in respective container. Then, the both open containers were placed in the same closed vessel and leaved to stand at 27° C. for two days. By the treatment, the anhydrous crystalline saccharide was allowed to absorb moisture and converted into hydrous crystal. The resulting hydrous crystal was dried in a drying machine at 50° C. for one hour to remove excess moisture. The moisture contents of the porous anhydrous crystalline trehalose and the porous anhydrous crystalline maltose before and after the treatment to absorb moisture and after drying are in Table 6. The moisture content of crystals was measured by the conventional Karl Fischer's method.

[8] = background art; cited from earlier work
[9] = 21 days after preservation at 40° C.
[10] = listed as control anhydrous crystalline trehalose
[11] = 21 days after preservation at 40° C., listed as Porous anhydrous crystalline trehalose (Present invention)
[12] = before preservation, listed as Porous anhydrous crystalline trehalose (Present invention)
[13] = listed as Porous anhydrous crystalline trehalose (Present invention)

With OC[C@H]1O[C@H](O[C@H]2O[C@H](CO)[C@@H](O)[C@H](O)[C@H]2O)[C@H](O)[C@@H](O)[C@@H]1O [Anhydrous crystalline trehalose (Control)] [α-D-glucosyl α-D-glucoside, reference compound] the Specific surface area ([1]; listed as Anhydrous crystalline trehalose (Conventional product, Control)) was 0.465 m^2/g, the “2,4-Decadienal” value [2, 9] was 7.01 μg/ml-vapor phase gas and the 2-Heptenal [2, 9] was 0.01 μg/ml-vapor phase gas. The 2-Hexenal [2, 9] was 0.02 μg/ml-vapor phase gas, the 2-Nonenal [2, 9] was 0.27 μg/ml-vapor phase gas and the 2-Octenal [2, 9] was 0.66 μg/ml-vapor phase gas. The Acetoaldehyde [2, 9] was 8.99 μg/ml-vapor phase gas, the Butanal [2, 9] was 0.93 μg/ml-vapor phase gas and the Hexanal [2, 9] was 0.16 μg/ml-vapor phase gas. It also gave a Pentanal [2, 9] of 0.55 μg/ml-vapor phase gas, a Propanal [2, 9] of 12.98 μg/ml-vapor phase gas and a Total aldehydes [2, 9] of 31.58 μg/ml-vapor phase gas. The “2,4-Decadienal” value ([2]; before preservation) was 6.77 μg/ml-vapor phase gas, the 2-Heptenal ([2]; before preservation) was 0.00 μg/ml-vapor phase gas and the 2-Hexenal ([2]; before preservation) was 0.00 μg/ml-vapor phase gas. It also gave a 2-Nonenal ([2]; before preservation) of 0.01 μg/ml-vapor phase gas, a 2-Octenal ([2]; before preservation) of 0.23 μg/ml-vapor phase gas and an Acetoaldehyde ([2]; before preservation) of 8.91 μg/ml-vapor phase gas. It also gave a Butanal ([2]; before preservation) of 0.66 μg/ml-vapor phase gas, a Hexanal ([2]; before preservation) of 0.07 μg/ml-vapor phase gas and a Pentanal ([2]; before preservation) of 0.13 μg/ml-vapor phase gas. The Propanal ([2]; before preservation) was 10.24 μg/ml-vapor phase gas, the Total aldehydes ([2]; before preservation) was 27.02 μg/ml-vapor phase gas and the Intrusion volume [3] was 0.03 mL/g. For the same molecule, the Mode pore diameter [3] was 0.46 μm, the Median pore diameter [3] was 0.40 μm and the Intrusion volume [3, 10] was 0.03 mL/g. The Oil-keeping ability [4] was 38.5, the Oil-keeping ability [4, 10] was 38.5 and the “Time required for dissolution, No. 1” value [5] was 90 s. The “Time required for dissolution, No. 2” value [5] was 87 s, the “Time required for dissolution, No. 3” value [5] was 96 s and the “Time required for dissolution, No. 4” value [5] was 91 s. The “Time required for dissolution, No. 5” value [5] was 86 s, the “Time required for dissolution, Average” value [5] was 90 s and the “Powdery form of flax seed oil powder” value [6, 10] was “could not keep powdery forms”.

For OC[C@H]1O[C@H](O[C@H]2O[C@H](CO)[C@@H](O)[C@H](O)[C@H]2O)[C@H](O)[C@@H](O)[C@@H]1O [Porous anhydrous crystalline trehalose (treated at 70° C. fo] [α-D-glucosyl α-D-glucoside], the “Specific surface area relative to control crystalline saccharide” value ([1]; compared with control(s)) was ≥ 5 folds, the Specific surface area [1] was 2.513 m^2/g and the “Crystal moisture content, after drying” value ([7]; after moisture absorption and drying at 50° C. for one hour) was 9.66 %, w/w. For the same molecule, the “Crystal moisture content, before treatment” value ([7]; before moisture absorption) was 0.24 %, w/w, the “Crystal moisture content, after treatment” value ([7]; closed vessel with water, 27° C., two days) was 10.32 %, w/w and the 2-Heptenal [2, 9] was 0.01 μg/ml-vapor phase gas. For the same molecule, the “2,4-Decadienal” value [2, 11] was 4.01 μg/ml-vapor phase gas, the 2-Hexenal [2, 11] was 0.01 μg/ml-vapor phase gas and the 2-Nonenal [2, 11] was 0.19 μg/ml-vapor phase gas. For the same molecule, the 2-Octenal [2, 11] was 0.43 μg/ml-vapor phase gas, the Acetoaldehyde [2, 11] was 3.77 μg/ml-vapor phase gas and the Butanal [2, 11] was 0.63 μg/ml-vapor phase gas. For the same molecule, the Hexanal [2, 11] was 0.11 μg/ml-vapor phase gas, the Pentanal [2, 11] was 0.33 μg/ml-vapor phase gas and the Propanal [2, 11] was 8.66 μg/ml-vapor phase gas. It also gave a Total aldehydes [2, 11] of 18.15 μg/ml-vapor phase gas, a 2-Heptenal ([2]; before preservation) of 0.00 μg/ml-vapor phase gas and a 2-Hexenal ([2]; before preservation) of 0.00 μg/ml-vapor phase gas. For the same molecule, the “2,4-Decadienal” value [2, 12] was 3.66 μg/ml-vapor phase gas, the 2-Nonenal [2, 12] was 0.00 μg/ml-vapor phase gas and the 2-Octenal [2, 12] was 0.11 μg/ml-vapor phase gas. The Acetoaldehyde [2, 12] was 4.13 μg/ml-vapor phase gas, the Butanal [2, 12] was 0.43 μg/ml-vapor phase gas and the Hexanal [2, 12] was 0.00 μg/ml-vapor phase gas. It also gave a Pentanal [2, 12] of 0.09 μg/ml-vapor phase gas, a Propanal [2, 12] of 5.77 μg/ml-vapor phase gas and a Total aldehydes [2, 12] of 14.19 μg/ml-vapor phase gas. The Intrusion volume [3] was 0.28 mL/g, the Mode pore diameter [3] was 0.20 μm and the “Pore diameter of clear peak in pore size distribution chart” value [3] was “less than 5 μm”. For the same molecule, the “Remarks (pores)” value [3] was “Having clear pores”, the Median pore diameter [3] was 0.29 μm and the Intrusion volume ([3]; listed as porous anhydrous crystalline trehalose) was 0.22 mL/g and 0.28 mL/g. For the same molecule, the Oil-keeping ability [4] was 62.5, the Oil-keeping ability [4, 13] was 62.5 and the “Oil-keeping ability relative to control” value ([4]; compared with control crystalline saccharide) was “about 1.6 folds”. The “Time required for dissolution, No. 1” value [5, 13] was 29 s, the “Time required for dissolution, No. 2” value [5, 13] was 34 s and the “Time required for dissolution, No. 3” value [5, 13] was 40 s. For the same molecule, the “Time required for dissolution, No. 4” value [5, 13] was 29 s, the “Time required for dissolution, No. 5” value [5, 13] was 31 s and the “Time required for dissolution, Average” value [5, 13] was 33 s. The “Dissolution in cold water in comparison with controls” value ([5]; cold water 10° C.) was “rapidly dissolved in cold water” and the “Powdery form of flax seed oil powder” value [6] was “kept good powdery form”.

For OC[C@H]1O[C@@](CO)(O[C@H]2O[C@H](CO)[C@@H](O)[C@H](O)[C@H]2O)[C@@H](O)[C@@H]1O [granulated sugar, sucrose], the Specific surface area [8] is listed as “about 0.1 m^2/g”.
